# Assay results published in patent publication US20260159519A1, “IMIDAZOPYRIDAZINE SUBSTITUTED BENZENE RING DERIVATIVE, PREPARATION METHOD, PHARMACEUTICAL COMPOSITION AND USE” (SHANGHAI SIMR BIOTECHNOLOGY CO., LTD., priority 2022, published 2026).
# Experiments:
# [1] = biological target: T1, human α1-GABAA receptor (α1-GABAAR-HEK293 cells) (Homo sapiens, UniProt P14867+P18507); assay: Whole-cell patch-clamp electrophysiology, positive allosteric modulatory activity on α1-GABAA receptor; assay type: cell-based; details: read-out: α1-GABAA positive allosteric modulatory activity
# T1 construct: expressed in transfected cells
# [2] = biological target: T2, human α2-GABAA receptor (BZD site, membrane protein of HEK293 cells) (Homo sapiens, UniProt P18507+P47869); assay: Radioligand competitive binding assay (3H-flunitrazepam) at the BZD site of the α2-GABAA receptor; details: competition with 1 nM 3H-flunitrazepam; Ki calculated from IC50; read-out: α2 Ki
# T2 construct: expressed in transfected cells
Structure (SMILES),activation at 0.1 µM [1],Ki [2]
"CCn1cnc2c(-c3ccc(F)c(-c4cc5oc(=O)n(C)c5cc4OC)c3)cnnc21 [Example 87, 6-(5-(7-Ethyl-7H-imidazo[4,5-c]pyridazin-4-yl)-2-fluorophenyl)-5-methoxy-3-methylbenzo[d]oxazol-2(3H)-one]",3%,3.38 nM
"COc1cc2c(cc1-c1cc(-c3cnnc4c3ncn4C(C)C)ccc1F)OCC(=O)N2C [Example 36, 7-(2-Fluoro-5-(7-isopropyl-7H-imidazo[4,5-c]pyridazin-4-yl)phenyl)-6-methoxy-4-methyl-2H-benzo[b][1,4]oxazin-3(4H)-one]",25%,5.73 nM
"CCN1C(=O)COc2cc(-c3cc(-c4cnnc5c4ncn5CC)ccc3F)c(OC)cc21 [Example 31, 4-Ethyl-7-(5-(7-ethyl-7H-imidazo[4,5-c]pyridazin-4-yl)-2-fluorophenyl)-6-methoxy-2H-benzo[b][1,4]oxazin-3(4H)-one]",13%,6.85 nM
"CCn1cnc2c(-c3ccc(F)c(-c4cc5c(cc4OC)N(C)C(=O)C5)c3)cnnc21 [Example 161, 5-(5-(7-Ethyl-7H-imidazo[4,5-c]pyridazin-4-yl)-2-fluorophenyl)-6-methoxy-1-methyldihydro-2-one]",65%,8.7 nM
"CCn1cnc2c(-c3ccc(F)c(-c4cc5c(cc4OC)N(C)C(=O)CO5)c3)cnnc21 [Example 42, 7-(5-(7-Ethyl-7H-imidazo[4,5-c]pyridazin-4-yl)-2-fluorophenyl)-6-methoxy-4-methyl-2H-benzo[b][1,4]oxazin-3(4H)-one]",27%,2.92 nM
